Data reported in US20240417406A1, “NITROGEN-CONTAINING TRICYCLIC COMPOUND AND PHARMACEUTICAL USE THEREOF” (JAPAN TOBACCO INC., priority 2021, published 2024).

biological target: human PDHK2 (hPDHK2) (Homo sapiens (Human), UniProt Q15119); test: Inhibitory action of PDHK2 activity (PDH/hPDHK2 complex, residual PDH activity by NADH absorbance at 340 nm); assay type: biochemical; conditions: FLAG-tagged recombinant hPDHK2 with porcine heart PDH complex; PDHK reaction 45 min at room temperature
Protocol: In the case of human PDHK2 (hPDHK2, NCBI Reference Database Accession number NM_002611.4), modified hPDHK2 cDNA wherein FLAG-Tag sequence was added to the N terminal of hPDHK2 cDNA clone (pReceiver-M01/PDK2-GeneCopoeia) as the base was prepared by polymerase chain reaction (PCR) and ligated to the NdeI/EcoRI site of pET-17b vector (Merck KGaA, Catalog Number 69663-3). The recombinant construct was transformed into Escherichia coli DH5a. The recombinant clones were identified, and plasmid DNA was isolated and subjected to the DNA sequence analysis. One clone which had the expected nucleic acid sequence was selected for expression work.
For expression of hPDHK2 activity, Escherichia coli strain BL21(DE3) cells (Merck KGaA, Catalog Number 69450-4) were transformed with the pET17b vector containing modified hPDHK2 cDNA. The Escherichia coli were grown to an optical density 0.6 ([…]) at 30° C. Protein expression was induced by the addition of 500 μmol/L isopropyl-β-thiogalactopyranoside. The Escherichia coli were cultured at 20° C. for 17 to for 18 hr and harvested by centrifugation. The harvested Escherichia coli was resuspended in a suspension buffer (20 mmol/L HEPES-NaOH, 500 mmol/L sodium chloride, 1% ethylene glycol, 0.1% Pluronic (registered trademark) F-68 (pH 8.0), cOmplete, EDTA-free (Roche) (pH 8.0)), and disrupted by a microfluidizer M-110H (MIZUHO INDUSTRIAL CO., LTD.). The precipitate was removed by centrifugation and the supernatant was added to DDDDK-tagged Protein PURIFICATION GEL (MEDICAL & BIOLOGICAL LABORATORIES CO., LTD., Code No. 3329). DDDDK-tagged Protein PURIFICATION GEL was washed with a washing buffer (20 mmol/L HEPES-NaOH, 500 mmol/L sodium chloride, 1% ethylene glycol, 0.1% Pluronic F-68 (pH 8.0)) and the bound protein was eluted with elution buffer 1 (20 mmol/L HEPES-NaOH, 100 μg/mL peptide (amino acid sequence DYKDDDDK) (SEQ ID NO: 1), 500 mmol/L sodium chloride, 1% ethylene glycol, 0.1% Pluronic F-68 (pH 8.0)). The eluted fractions containing FLAG-Tagged protein were pooled, concentrated by an ultrafiltration method, added to a gel filtration column (HiLoad 26/60 Superdex 200 (GE Healthcare Life Sciences, Code No. 17-1070-01)), and eluted with elution buffer 2 (20 mmol/L HEPES-NaOH, 150 mmol/L sodium chloride, 0.5 mmol/L ethylenediaminetetraacetic acid (EDTA), 1% ethylene glycol, 0.1% Pluronic F-68 (pH 8.0)). The eluted fractions were pooled and preserved at −80° C.
PDH (porcine heart PDH complex, Sigma P7032) and 0.5 μg/mL hPDHK2 were mixed in an assay buffer (50 mmol/L 3-morpholinopropanesulfonic acid (pH 7.0), 20 mmol/L dipotassium hydrogen phosphate, 60 mmol/L potassium chloride, 2 mmol/L magnesium chloride, 0.4 mmol/L EDTA, 0.2% poloxamer, 2 mmol/L dithiothreitol) so that the final concentration of PDH was 0.025 U/mL, and the mixture was incubated at 4° C. overnight to obtain a PDH/hPDHK2 complex solution.
PDH was mixed with the assay buffer so that the final concentration was 0.025 U/mL, and the mixture was incubated at 4° C. overnight to prepare a PDH solution.
The test compounds were diluted with DMSO. […] DMSO (1.5 μL) was added to control wells instead of test compound. In addition, DMSO (1.5 μL) was added to blank wells instead of the test compound, and PDH solution was added instead of the PDH/hPDHK2 complex solution. To measure an inhibitory action of the test compound on the PDHK activity inherent in the PDH solution, a test compound was added and the PDH solution instead of the PDH/hPDHK2 complex solution was added to a blank+test compound well.
Then, 10 μL of substrates (5 mmol/L sodium pyruvate, 5 mmol/L Coenzyme A, 12 mmol/L NAD, 5 mmol/L thiamine pyrophosphate, diluted with assay buffer) were added. The mixture was incubated at room temperature for 90 min, and the residual PDH activity was measured.
The absorbance of each well at 340 nm was measured using a microplate reader to detect NADH produced by the PDH reaction. […]

In order of rising IC50:
1. C[C@H]1Cc2c(cnn2CCC(C)(C)O)-c2onc([C@@](C)(O)C(F)(F)F)c21 [Example 40]  5.8 nM
2. COC(=O)C12CCC(c3nnc4n3C[C@H](C)c3c([C@@](C)(O)C(F)(F)F)noc3-4)(CC1)CC2 [Example 11]  6.6 nM
3. C[C@H]1Cn2nccc2-c2onc([C@@](C)(O)C(F)(F)F)c21 [Example 60, (R)-1,1,1-trifluoro-2-((R)-4-methyl-4,5-dihydroisoxazolo[5,4-c]pyrazolo[1,5-a]pyridin-3-yl)propan-2-ol]  6.7 nM
4. C[C@H]1Cn2nc(OC3CCOCC3)cc2-c2onc([C@@](C)(O)C(F)(F)F)c21 [Example 59, (R)-1,1,1-trifluoro-2-((R)-4-methyl-8-((tetrahydro-2H-pyran-4-yl)oxy)-4,5-dihydroisoxazolo[5,4-c]pyrazolo[1,5-a]pyridin-3-yl)propan-2-ol]  7.1 nM
5. C[C@H]1Cn2nc(OCC3(C#N)CC3)cc2-c2onc([C@@](C)(O)C(F)(F)F)c21 [Example 33]  8.7 nM
6. C[C@H]1Cn2nc(OCC34CC(C#N)(C3)C4)cc2-c2cnc([C@@](C)(O)C(F)(F)F)n21 [Example 97, 3-((((S)-5-methyl-3-((R)-1,1,1-trifluoro-2-hydroxypropan-2-yl)-5,6-dihydroimidazo[1,5-a]pyrazolo[5,1-c]pyrazin-9-yl)oxy)methyl)bicyclo[1.1.1]pentane-1-carbonitrile]  8.8 nM
7. C[C@H]1Cn2nc(O[C@H]3C[C@](C)(C#N)C3)cc2-c2onc([C@@](C)(O)C(F)(F)F)c21 [Example 63, (1R,3r)-1-methyl-3-(((R)-4-methyl-3-((R)-1,1,1-trifluoro-2-hydroxypropan-2-yl)-4,5-dihydroisoxazolo[5,4-c]pyrazolo[1,5-a]pyridin-8-yl)oxy)cyclobutane-1-carbonitrile]  9.1 nM
8. C[C@H]1Cc2c(cnn2[C@H]2CC[C@](C)(O)CC2)-c2onc([C@@](C)(O)C(F)(F)F)c21 (racemic) [Example 56, (1S,4r)-1-methyl-4-((S)-4-methyl-3-((R)-1,1,1-trifluoro-2-hydroxypropan-2-yl)-4,5-dihydro-6H-isoxazolo[5,4-e]indazol-6-yl)cyclohexan-1-ol and enantiomer thereof]  10.7 nM
9. C[C@H]1Cn2nc(OCc3ccccc3)cc2-c2onc([C@@](C)(O)C(F)(F)F)c21 (racemic) [Example 15]  10.9 nM
10. C[C@H]1Cn2nc(C34CCC(CO)(CC3)C4)cc2-c2cnc([C@@](C)(O)C(F)(F)F)n21 [Example 87]  11 nM
11. C[C@H]1Cn2nc(C(F)(F)F)cc2-c2cnnc([C@@](C)(O)C(F)(F)F)c21 [Example 100, (R)-1,1,1-trifluoro-2-((R)-5-methyl-9-(trifluoromethyl)-5,6-dihydropyrazolo[1′,5′:1,2]pyrido[3,4-d]pyridazin-4-yl)propan-2-ol]  11.1 nM
12. C[C@H]1Cc2c(cnn2C(C)(C)C)-c2onc([C@@](C)(O)C(F)(F)F)c21 (racemic) [Example 16]  12.2 nM
13. C[C@H]1Cn2nc(OCCF)cc2-c2cnc([C@@](C)(O)C(F)(F)F)n21 [Example 66]  13.7 nM
14. C[C@H]1Cc2nn([C@H]3CC[C@](C)(O)CC3)cc2-c2onc([C@@](C)(O)C(F)(F)F)c21 (racemic) [Example 55, (1S,4r)-1-methyl-4-((S)-4-methyl-3-((R)-1,1,1-trifluoro-2-hydroxypropan-2-yl)-4,5-dihydro-7H-isoxazolo[5,4-e]indazol-7-yl)cyclohexan-1-ol and enantiomer thereof]  14.3 nM
15. C[C@H]1Cn2nc(OCC(C)(C)O)cc2-c2onc([C@@](C)(O)C(F)(F)F)c21 (racemic) [Example 14]  14.4 nM
16. C[C@H]1Cc2c(cnn2CC#N)-c2onc([C@@](C)(O)C(F)(F)F)c21 (racemic) [Example 50]  14.5 nM
17. C[C@H]1Cn2nc(N3CC4C(C3)C4(F)F)cc2-c2cnc([C@@](C)(O)C(F)(F)F)n21 (some centres unmarked) [Example 78]  15.1 nM
18. C[C@H]1Cn2c(nnc2C(F)F)-c2onc([C@@](C)(O)C(F)(F)F)c21 [Example 25]  15.7 nM
19. C[C@H]1Cn2nc(O[C@H]3CC[C@](C)(O)CC3)cc2-c2onc([C@@](C)(O)C(F)(F)F)c21 (racemic) [Example 37]  17.2 nM
20. C[C@H]1Cn2nc(C34CCC(CO)(CC3)CC4)cc2-c2cnc([C@@](C)(O)C(F)(F)F)n21 [Example 69]  18 nM
21. C[C@H]1Cn2nc(OCF)cc2-c2onc([C@@](C)(O)C(F)(F)F)c21 (racemic) [Example 44]  18.3 nM
22. C[C@@H]1Cc2nn(CC#N)cc2-c2onc([C@](C)(O)C(F)(F)F)c21 [Example 49]  19.5 nM
23. C[C@H]1Cn2c(nnc2C(C)(F)F)-c2onc([C@@](C)(O)C(F)(F)F)c21 [Example 3]  20.4 nM
24. C[C@H]1Cn2nc(C34CC(CO)(C3)C4)cc2-c2cnc([C@@](C)(O)C(F)(F)F)n21 [Example 70]  21.2 nM
25. C[C@H]1Cc2nn(C3CC(C#N)C3)cc2-c2onc([C@@](C)(O)C(F)(F)F)c21 (stereo in doubt) [Example 30]  21.2 nM
26. C[C@H]1Cn2nc(C34CCC(C#N)(CC3)OC4)cc2-c2cnc([C@@](C)(O)C(F)(F)F)n21 [Example 88, 4-((S)-5-methyl-3-((R)-1,1,1-trifluoro-2-hydroxypropan-2-yl)-5,6-dihydroimidazo[1,5-a]pyrazolo[5,1-c]pyrazin-9-yl)-2-oxabicyclo[2.2.2]octane-1-carbonitrile]  23.8 nM
27. C[C@H]1Cc2nn(CC(C)(C)O)cc2-c2onc([C@@](C)(O)C(F)(F)F)c21 (racemic) [Example 38]  25.2 nM
28. C[C@H]1Cc2c(cnn2C)-c2onc([C@@](C)(O)C(F)(F)F)c21 (racemic) [Example 24]  25.4 nM
29. C[C@H]1Cn2nc(O[C@H]3C[C@](C)(C#N)C3)cc2-c2onc([C@@](C)(O)C(F)(F)F)c21 (racemic) [Example 47]  25.8 nM
30. C[C@H]1Cn2nc(OC(F)F)cc2-c2onc([C@@](C)(O)C(F)(F)F)c21 (racemic) [Example 45]  26.4 nM
31. COCCOc1cc2n(n1)C[C@@H](C)c1c([C@](C)(O)C(F)(F)F)noc1-2 [Example 43]  28.2 nM
32. C[C@H]1Cc2nn(C3CC(C#N)C3)cc2-c2onc([C@@](C)(O)C(F)(F)F)c21 (stereo in doubt) [Example 27]  31.5 nM
33. C[C@H]1Cn2nc(N3C[C@H]4C[C@@H]3CO4)cc2-c2cnc([C@@](C)(O)C(F)(F)F)n21 [Example 82]  34 nM
34. C[C@H]1Cn2nc(N3CC4CC(C3)C4(F)F)cc2-c2cnc([C@@](C)(O)C(F)(F)F)n21 [Example 79]  35.2 nM
35. C[C@H]1Cn2nc(C34CC(C#N)(C3)C4)cc2-c2cnnc([C@@](C)(O)C(F)(F)F)c21 (racemic) [Example 104, 3-[(R)-5-methyl-4-((R)-1,1,1-trifluoro-2-hydroxypropan-2-yl)-5,6-dihydropyrazolo[1′,5′:1,2]pyrido[3,4-d]pyridazin-9-yl]bicyclo[1.1.1]pentane-1-carbonitrile and 3-[(S)-5-methyl-4-((S)-1,1,1-trifluoro-2-hydroxypropan-2-yl)-5,6-dihydropyrazolo[1′,5′:1,2]pyrido[3,4-d]pyridazin-9-yl]bicyclo[1.1.1]pentane-1-carbonitrile]  36.9 nM
